In article PMC10017155 (Aging and Disease, 2023):
Peptide text beside a SMILES is read from it.

Key:
immobilized Aβ42 = biological target: T1, immobilized Aβ42 (Homo sapiens, UniProt P05067); test: SPR analysis of HAEE binding to immobilized Aβ42
T1 construct: Aβ42 ([…] […]); purchased Biopeptide Co., LLC (San Diego, CA, USA); host or cells: chemical synthesis
Description: (§1) All SPR measurements were carried out at 25°C using an optical biosensor Biacore 8K (GE Healthcare, USA) with CM4 optical chip. Covalent immobilization of the peptide ligands on the surface of the optical chip was performed using the sulfhydryl group of the C-terminal tetragly-cylcysteine tag. Briefly, carboxyl groups on the chip surface were activated by serial injections of mixture of 0.4 M EDC/0.1 M NHS at a flow rate of 10 μL/min for 2 min and a solution of 80 mM PDEA in 100 mM borate buffer (pH 8.5) for 4 min. Solutions of 2 μM peptides in the immobilization buffer (10 mM acetate buffer, pH 4.5) were injected for 2 min at a flow rate of 10 μL/min (three repeats). Unreacted activated groups on the chip were blocked by further injection of a solution containing 50 mM cysteine, 1 M NaCl, 0.1 M sodium acetate (pH 4.3) for 4 min at a flow rate of 5 μL/min. Possible nonspecific analyte binding to the chip surface was evaluated using a free (control) channel of the biosensor exposed to the same treatments as the working channel except peptides. SPR signals were recorded in real time in resonance units (RU; 1 RU corresponds to […]) and were presented in the form of sensorgrams showing time-dependent signal changes. […] The obtained sensorgrams were analyzed with BIAevaluation v.4.1 software.

Aβ16 = test: NMR titration, Aβ16 with HAEE and Zn2+; assay type: binding; settings: 278 K, pH 6.8, Zn2+
Description: (§2) Peptides Aβ16, H6R-Aβ16 and isoD7-Aβ16 at the concentration of 0.2 - 8mM were dissolved in 10-20 mM bis-Tris-d19 (2,2-Bis(hydroxymethyl)-2,2′,2"-nitrilotrie-thanol-d19 with 98% ^2D enrichment) buffer solution (pH 6.8). Sodium salt of 3-(trimethylsilyl) propionic-2,2,3,3-d4 acid (DSS) at a concentration of 10-20 μM was added as the standard. NMR spectra were measured at 278 K in 90% H2O/10% D2O with Bruker AVANCE 600 MHz spectrometer equipped with triple resonance (^1H, ^13C and ^15N) pulsed field z gradient probe. 1D NMR spectra were processed and analyzed using the Mnova software (Mestrelab Research, Spain). In order to monitor peptide-peptide interactions NMR titration experiments were carried out. […] 1D spectra were recorded for each titration point.

C. elegans CL2120 = test: Paralysis assay in C. elegans CL2120; assay type: in vivo; settings: for Mean fraction of paralyzed: Aβ42 or isoD7-Aβ42 40 μM, HAEE 4 mM, 25°C, mean ± SD of 3 experiments
Description: C. elegans CL2120 (dvIs14 [(pCL12) unc-54::beta 1-42 +(pCL26) mtl-2::GFP]) and C. elegans CL2122 (dvIs15 [(pPD30.38) unc-54(vector) + (pCL26) mtl-2::GFP]) strains were obtained from the Caenorhabditis Genetics Center. The worms were handled according to standard methods without FUDR [18]. E. coli OP50 bacteria were grown overnight in Luria-Bertani broth and 50µl were spread atop NGM or NGMZn plates. NGMZn has 20μM ZnSO4. Seeded plates were incubated at 30°C for ~16 hours and then for 1-2 hours at 15 or 25°C before worms were transferred. Lifespan and paralysis experiments (see below) were performed at 25°C for enhanced expression of Aβ. This temperature is standard when studying the effects of Aβ on C. elegans CL2120 strain [19].
Then, nematodes were transferred to Petri plates with NGM or NGMZn and OP-50, placed in a temperature-controlled incubator at 25°C. On the next day, worms were transferred onto similar media with a bacterial substrate and paralyzed nematodes were counted at equal time intervals. […] For the paralysis experiments, we chose the days where we could clearly distinguish between paralysis and mortality. This conformed to the third and fourth days of their adult life. While at least three repeated trials were conducted, each experiment was performed using at least 100 worms. Details regarding repeated experiments and amounts of animals used for experiments are summarized in Supplementary Table 2. Mean fraction of paralyzed worms was compared between groups with two-way ANOVA, accounting for age and treatment. Post-hoc analysis was performed with the Tukey test. Statistical analysis was performed with GraphPad Prism 9.1 software.

isoD7-Aβ16 = test: NMR titration, isoD7-Aβ16 with HAEE and Zn2+; assay type: binding; settings: NMR
Description: as §2

immobilized isoD7-Aβ42 = biological target: T2, immobilized isoD7-Aβ42 (Homo sapiens, UniProt P05067); test: SPR analysis of HAEE binding to immobilized isoD7-Aβ42
T2 construct: isoD7-Aβ42 (DAEFRH[isoD][…]); purchased Biopeptide Co., LLC (San Diego, CA, USA); host or cells: chemical synthesis
T2 sequence (P05067 672-713): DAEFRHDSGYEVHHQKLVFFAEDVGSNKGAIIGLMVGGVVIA
Description: as §1

T1 sequence (P05067 672-713): as above

CC(=O)N[C@@H](Cc1c[nH]cn1)C(=O)N[C@@H](C)C(=O)N[C@@H](CCC(=O)O)C(=O)N[C@@H](CCC(=O)O)C(N)=O [HAEE, Ac-HAEE-NH2] (Ac-HAEE-NH2)
Kd (immobilized Aβ42): 4.1 ± 0.3 µM
Interaction with immobilized Aβ42 in the absence of Zn2+ (immobilized Aβ42; SPR, 10 mM HEPES, pH 6.8, no Zn2+, 25°C): no interaction
Signal at 0.2 ppm (characteristic of the dimeric form of the Aβ metal binding domain) (Aβ16; 1H NMR): eliminated the signal
Zinc-dependent dimerization of Aβ16 (Aβ16; NMR): inhibits
Mean fraction of paralyzed (C. elegans CL2120; A3 (3 days old), NGM (no Zn)): 5.5±0.35%
Fraction of paralyzed (C. elegans CL2120; A3 (3 days old), NGM (no Zn), replicate 1): 5.5%
Fraction of paralyzed (C. elegans CL2120; A3 (3 days old), NGM (no Zn), replicate 2): 5.2%
Fraction of paralyzed (C. elegans CL2120; A3 (3 days old), NGM (no Zn), replicate 3): 5.9%
Mean fraction of paralyzed (C. elegans CL2120; A4 (4 days old), NGM (no Zn)): 10.5±0.55%
Fraction of paralyzed (C. elegans CL2120; A4 (4 days old), NGM (no Zn), replicate 1): 9.9%
Fraction of paralyzed (C. elegans CL2120; A4 (4 days old), NGM (no Zn), replicate 2): 10.9%
Mean fraction of paralyzed (C. elegans CL2120; A4 (4 days old), NGMZn (ZnSO4 20 μM)): 9.5±0.65%
Fraction of paralyzed (C. elegans CL2120; A4 (4 days old), NGMZn, replicate 1): 10.2%
Fraction of paralyzed (C. elegans CL2120; A4 (4 days old), NGMZn, replicate 2): 9.5%
Fraction of paralyzed (C. elegans CL2120; A4 (4 days old), NGMZn, replicate 3): 8.9%
Effect of HAEE on isoD7-Aβ42/Zn2+-accelerated paralysis (C. elegans CL2120; HAEE 4 mM + isoD7-Aβ42 40 μM, NGMZn): suppresses this effect
Zinc-dependent dimerization of isoD7-Aβ16 (isoD7-Aβ16; 278 K, pH 6.8, Zn2+): inhibits
Effect of Zn2+ on isoD7-Aβ16 NMR signal in the presence of HAEE (isoD7-Aβ16; pH 6.8, 278 K, Zn2+ plus HAEE): did not diminish the isoD7-Aβ16 signal
Interaction with immobilized isoD7-Aβ42 in the absence of Zn2+ (immobilized isoD7-Aβ42; 10 mM HEPES, pH 6.8, no Zn2+, 25°C): no interaction
Kd (immobilized isoD7-Aβ42; immobilized isoD7-Aβ42, 100 µM ZnCl2, pH 6.8, 25°C): 10.4 ± 0.4 µM
